# Target: human GSK3β (Homo sapiens, UniProt P49841)
# Experiment: Screening for GSK3 inhibitory activity using a cell-free assay
# Type: biochemical
# Settings: read-out: IC50 with respect to GSK3
# Method in brief: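 Compounds in DMSO were tested against human GSK3β over a three-hour kinase reaction. Radiolabeled phosphate transferred to the peptide was captured on streptavidin plates after EDTA/ATP stop and quantified by scintillation counting. Signal was plotted versus compound concentration.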
# Sequence of human GSK3β (P49841 whole entry): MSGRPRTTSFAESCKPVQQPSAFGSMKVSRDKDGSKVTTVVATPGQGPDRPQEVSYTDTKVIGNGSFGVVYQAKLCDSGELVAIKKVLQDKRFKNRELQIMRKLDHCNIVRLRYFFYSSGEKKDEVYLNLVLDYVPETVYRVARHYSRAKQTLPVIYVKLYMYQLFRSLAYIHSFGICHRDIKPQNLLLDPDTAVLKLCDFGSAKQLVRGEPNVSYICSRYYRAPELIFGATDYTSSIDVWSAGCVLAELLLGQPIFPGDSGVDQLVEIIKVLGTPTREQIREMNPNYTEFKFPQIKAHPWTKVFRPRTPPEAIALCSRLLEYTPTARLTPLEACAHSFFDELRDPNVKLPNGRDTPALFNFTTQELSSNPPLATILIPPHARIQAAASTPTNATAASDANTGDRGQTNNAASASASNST
row,Structure (SMILES),IC50 [µM]
1,COc1cccc(CCNc2nccc(-c3ccc(C(N)=O)cc3)n2)c1 [4-(2-{[2-(3-methoxyphenyl)ethyl]amino}pyrimidin-4-yl)-benzamide],≤ 10
2,NC(=O)c1ccc(-c2ccnc(NCCCCc3ccccc3)n2)cc1 [4-{2-[(4-phenylbutyl)amino]-pyrimidin-4-yl}benzamide],≤ 10
3,COc1cccc(OCCCNc2nccc(-c3ccc(C(N)=O)cc3)n2)c1 [4-(2-{[3-(3-methoxyphenoxy)propyl]-amino}pyrimidin-4-yl)benzamide],≤ 10
4,"Cc1c[nH]c(-c2cnc(NCCNc3ccc([N+](=O)[O-])c(N)n3)nc2-c2ccc(Cl)cc2Cl)n1 [{2-[(6-amino-5-nitro(2-pyridyl))amino]-ethyl}[4-(2,4-dichlorophenyl)-5-(4-methylimidazol-2-yl)pyrimidin-2-yl]amine]",≤ 1
5,"N#Cc1ccc(NCCNCc2ncc(-c3ncc[nH]3)c(-c3ccc(Cl)cc3Cl)n2)nc1 [6-[(2-{[4-(2,4-dichlorophenyl)-5-imidazol-2-ylpyrimidin-2-yl]methylamino}ethyl)amino]pyridine-3-carbonitrile]",≤ 1
6,"Nc1nc(NCCNc2ncc(N3CCOCC3)c(-c3ccc(Cl)cc3Cl)n2)ccc1[N+](=O)[O-] [{2-[(6-amino-5-nitro(2-pyridyl))amino]ethyl}[4-(2,4-dichlorophenyl)-5-morpholin-4-yl-pyrimidin-2-yl]amine]",≤ 1
7,CCOC(=O)c1cnc(NCCNc2ccc([N+](=O)[O-])cn2)nc1-c1ccc2ccccc2c1 [ethyl 4-(2-naphthyl)-2-({2-[(5-nitro(2-pyridyl))amino]-ethyl}amino)pyrimidine-5-carboxylate],≤ 1
8,NC(=O)c1ccc(-c2ccnc(NCCOc3ccccc3)n2)cc1 [4-{2-[(2-phenoxyethyl)amino]pyrimidin-4-yl}benzamide],≤ 10
9,N#Cc1ccc(-c2nc(NCCNc3ccc([N+](=O)[O-])cn3)ncc2C(=O)NCCN)cc1 [N-(2-aminoethyl)[4-(4-cyanophenyl)-2-({2-[(5-nitro(2-pyridyl))amino]ethyl}amino)pyrimidin-5-yl]carboxamide],≤ 1
10,CN(C)CCN(C)C(=O)c1cnc(NCCNc2ccc([N+](=O)[O-])cn2)nc1-c1ccc(C#N)cc1 [N-[2-(dimethylamino)ethyl][4-(4-cyanophenyl)-2-({2-[(5-nitro(2-pyridyl))amino]ethyl}amino)pyrimidin-5-yl]-N-methylcarboxamide],≤ 1
11,O=C(NCc1cccc(Br)c1)c1ccc(-c2ccnc(NCCNc3ccc(C(F)(F)F)cn3)n2)cc1 [N-[(3-bromophenyl)methyl](4-{2-[(2-{[5-(trifluoromethyl)(2-pyridyl)]amino}ethyl)amino]pyrimidin-4-yl}phenyl)-carboxamide],≤ 10

# The remaining lines, values ahead:
row,IC50 [µM],Structure (SMILES)
1,≤ 1,Nc1nc(NCCNc2ncc(-c3ncc[nH]3)c(-c3ccccc3Cl)n2)ccc1[N+](=O)[O-] [{2-[(6-amino-5-nitro(2-pyridyl))amino]ethyl}[4-(2-chlorophenyl)-5-imidazol-2-ylpyrimidin-2-yl]amine]
2,≤ 10,NC(=O)c1ccc(-c2ccnc(NCCc3ccc([N+](=O)[O-])cc3)n2)cc1 [4-(2-{[2-(4-nitrophenyl)ethyl]amino}pyrimidin-4-yl)benzamide]
3,≤ 10,CCOC(=O)c1c(CC)nc(NCCNc2ccccn2)nc1-c1ccc(C(N)=O)cc1 [ethyl 4-(4-carbamoylphenyl)-6-ethyl-2-{[2-(2-pyridylamino)ethyl]-amino}pyrimidine-5-carboxylate]
4,≤ 10,N#Cc1cccc(-c2ccnc(NCCNc3ccc([N+](=O)[O-])cn3)n2)c1 [3-[2-({2-[(5-nitro-2-pyridyl)amino]ethyl}amino)pyrimidin-4-yl]benzenecarbonitrile]
5,≤ 10,CCOC(=O)c1ccc(-c2ccnc(NCCNc3ccc([N+](=O)[O-])cn3)n2)cc1 [ethyl 4-[2-({2-[(5-nitro-2-pyridyl)amino]ethyl}amino)pyrimidin-4-yl]benzoate]
6,≤ 10,O=[N+]([O-])c1ccc(NCCNc2nccc(NCc3ccc(Cl)cc3)n2)nc1 [[(4-chlorophenyl)methyl][2-({2-[(5-nitro(2-pyridyl))amino]ethyl}amino)pyrimidin-4-yl]amine]

# Reference: patent publication US7425557B2, “Inhibitors of glycogen synthase kinase 3” (Novartis Vaccines and Diagnostics, Inc., priority 1998, dated 2008)
